{"source": "patent US7741124B2", "about": "“Detection procedures for fibrinogen and/or fibrinogen derivatives” (priority 2003, dated 2010)", "key": {"fibrinogen": {"molecular_target": "T1, fibrinogen (Homo sapiens, UniProt P02671+P02675+P02679)", "T1 construct": "pooled patient plasma (P-Pool, n=32 single plasmas); from tissue; host or cells: pooled citrated patient plasma (P-Pool, Fbgen-Pool-Plasma)", "T1 sequence (P02671 20-644 isoform P02671-2 limits assumed)": "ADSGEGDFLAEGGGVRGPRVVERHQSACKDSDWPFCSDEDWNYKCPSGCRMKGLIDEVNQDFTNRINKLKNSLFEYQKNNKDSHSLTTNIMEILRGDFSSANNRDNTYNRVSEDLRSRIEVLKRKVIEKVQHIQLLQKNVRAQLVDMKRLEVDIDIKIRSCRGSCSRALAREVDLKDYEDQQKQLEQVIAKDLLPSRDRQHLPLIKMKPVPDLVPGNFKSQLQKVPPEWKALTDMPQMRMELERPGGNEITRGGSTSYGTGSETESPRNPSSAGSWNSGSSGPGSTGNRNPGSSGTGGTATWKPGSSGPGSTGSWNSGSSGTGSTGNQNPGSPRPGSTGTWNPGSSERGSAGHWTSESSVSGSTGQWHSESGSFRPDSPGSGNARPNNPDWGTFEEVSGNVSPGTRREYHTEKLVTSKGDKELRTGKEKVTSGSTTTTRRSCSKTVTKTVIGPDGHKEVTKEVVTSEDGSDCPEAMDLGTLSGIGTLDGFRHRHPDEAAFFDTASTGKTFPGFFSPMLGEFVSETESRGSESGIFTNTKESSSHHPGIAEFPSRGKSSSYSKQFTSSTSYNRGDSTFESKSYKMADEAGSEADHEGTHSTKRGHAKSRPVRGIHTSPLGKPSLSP", "T1 sequence (P02675 31-491)": "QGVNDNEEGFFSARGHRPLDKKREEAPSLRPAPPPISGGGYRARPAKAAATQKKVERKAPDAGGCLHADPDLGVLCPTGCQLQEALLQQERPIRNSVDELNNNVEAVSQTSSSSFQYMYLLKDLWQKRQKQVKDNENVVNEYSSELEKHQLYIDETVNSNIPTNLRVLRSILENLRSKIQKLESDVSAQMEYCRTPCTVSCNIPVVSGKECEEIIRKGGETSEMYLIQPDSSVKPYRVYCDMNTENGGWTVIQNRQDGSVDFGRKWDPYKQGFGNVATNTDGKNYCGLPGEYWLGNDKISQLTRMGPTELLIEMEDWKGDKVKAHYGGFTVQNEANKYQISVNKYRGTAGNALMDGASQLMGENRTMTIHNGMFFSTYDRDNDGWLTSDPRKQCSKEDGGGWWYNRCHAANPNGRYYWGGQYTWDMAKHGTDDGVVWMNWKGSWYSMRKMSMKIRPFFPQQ", "T1 sequence (P02679 27-437 isoform P02679-2 limits assumed)": "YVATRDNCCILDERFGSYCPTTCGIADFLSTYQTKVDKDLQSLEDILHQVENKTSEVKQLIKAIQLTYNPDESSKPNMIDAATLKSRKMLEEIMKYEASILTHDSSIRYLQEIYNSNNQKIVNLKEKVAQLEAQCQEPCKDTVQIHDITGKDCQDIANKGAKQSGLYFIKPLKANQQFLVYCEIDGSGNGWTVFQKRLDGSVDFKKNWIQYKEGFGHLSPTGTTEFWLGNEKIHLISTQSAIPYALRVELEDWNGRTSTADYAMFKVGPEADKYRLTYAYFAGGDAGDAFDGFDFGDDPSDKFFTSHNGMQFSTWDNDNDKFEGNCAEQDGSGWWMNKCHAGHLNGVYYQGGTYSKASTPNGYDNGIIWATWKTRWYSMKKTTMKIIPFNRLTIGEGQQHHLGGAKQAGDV", "experiment": "FIATA optimization: turbidity in dependence of vancomycin concentration", "format": "biochemical", "method": "50 μl P-Pool or 1:2 or 1:4 diluted (in 6% BSA-PBS) P-Pool were incubated with 50 μl 0-6.8 mM vancomycin in PBS. The turbidity increase at 405 nm was determined after 1 min (RT). 25 μl Fbgen-Pool (300% of norm; 8.4 g/l) were incubated with 125 μl 0.55 mM, 1.1 mM, or 2.2 mM vancomycin in PBS for 1 min (RT). Then the turbidity increase at 405 nm was determined."}, "plasmatic fibrinogen": {"molecular_target": "T2, plasmatic fibrinogen (Homo sapiens, UniProt P02671+P02675+P02679)", "T2 construct": "pooled patient plasma (P-Pool, n=32 single plasmas); from tissue; host or cells: pooled citrated patient plasma (P-Pool, Fbgen-Pool-Plasma)", "T2 sequence (P02671 20-644 isoform P02671-2 limits assumed)": "T1 sequence (P02671 20-644 isoform P02671-2 limits assumed)", "T2 sequence (P02675 31-491)": "T1 sequence (P02675 31-491)", "T2 sequence (P02679 27-437 isoform P02679-2 limits assumed)": "T1 sequence (P02679 27-437 isoform P02679-2 limits assumed)", "format": "biochemical", "method": "25 μl of 143% (4.0 g/l) P-Pool were incubated with 25 μl 0-50 mM vancomycin in PBS, 50 μl PBS, 0.1% Triton X 100® and 50 μl 850 mM KCl in H2O for 1 min (RT). The turbidity at 405 nm was determined. […] For pH-studies 5 ml P-Pool were mixed with 5 ml PBS and 0-1750 μl 1 M NaHCO3, pH 8.6.\n5 ml P-Pool were incubated with 5 ml 4.4 mM vancomycin in PBS for 3 min (RT). Then the reaction mixture was centrifuged at 2500 g (4000 rpm) for 10 min. The supernatant was separated from the precipitate. The precipitate was not washed or was washed 3× with dest. H2O (resuspension, centrifugation, resuspension, . . . ). The unwashed precipitate was solubilized by addition of 500 μl 1 M NaHCO3, pH 8.6, and 4500 μl PBS; the washed precipitate was solubilized by addition of 300 μl 1 M NaHCO3 to 1700 μl in dest. H2O resuspended precipitate. 3 preparations of washed precipitate were also dried at room temperature and the dried precipitates were weighed. The solubilized precipitate and the supernatant were functionally analyzed for fibrinogen. 100 μl 1 M NaHCO3, pH 8.6 were added to 400 μl of the solubilized unwashed precipitate and this solution, the solubilized washed precipitate and the supernatant were analyzed for total protein, albumin concentration, and pseudocholinesterase activity in a Hitachi 917 analyzer, Roche, Basel, Switzerland and for vancomycin in an Integra 800 (Fluorescence Polarisation Immuno Assay); electrophoreses were performed in an agarose gel-based Hydrasis LC-Electrophoresis system (Sebia, Fulda, Germany). For control, 1 ml pooled serum was incubated with 1 ml 4.4 mM vancomycin in PBS, and the vancomycin conc. was determined."}, "[1]": {"settings": "after 1+1 incubation with 4.4 mM vancomycin in PBS"}}}
{"smiles": "CN[C@H](CC(C)C)C(=O)N[C@H]1C(=O)N[C@@H](CC(N)=O)C(=O)N[C@H]2C(=O)N[C@H]3C(=O)N[C@H](C(=O)N[C@H](C(=O)O)c4cc(O)cc(O)c4-c4cc3ccc4O)[C@H](O)c3ccc(c(Cl)c3)Oc3cc2cc(c3O[C@@H]2O[C@H](CO)[C@@H](O)[C@H](O)[C@H]2O[C@H]2C[C@](C)(N)[C@H](O)[C@H](C)O2)Oc2ccc(cc2Cl)[C@H]1O", "note": "[vancomycin]", "values": [{"measurement": "fibrinogen concentration at saturation of turbidity increase", "setting": "fibrinogen; 68.8 μmoles of vancomycin given to 25 μl 300% Fbgen-Pool", "result": "about 4 g/l"}, {"measurement": "own turbidity at 405 nm", "setting": "fibrinogen; 4.4 mM vancomycin in PBS, 0% fibrinogen standard in BSA", "result": "< 50", "unit": "mA"}, {"measurement": "fibrinogen concentration at saturation of turbidity increase", "setting": "fibrinogen; 137.5-275 μmoles of vancomycin", "result": "6 to 8", "unit": "g/L"}, {"measurement": "stability of the turbidity increase", "setting": "fibrinogen; vancomycin in plasma, RT", "result": "at least 10 min"}, {"measurement": "fibrinogen precipitated", "setting": "plasmatic fibrinogen; 4.4 mM vancomycin", "result": 84, "unit": "%"}, {"measurement": "fibrinogen remained in the plasma", "setting": "plasmatic fibrinogen; 4.4 mM vancomycin", "result": 16, "unit": "%"}, {"measurement": "fibrinogen remained of initial 4.0 g/l", "setting": "plasmatic fibrinogen; 4.4 mM vancomycin, corrected for 1+1 dilution", "result": 0.64, "unit": "g/L"}, {"measurement": "fibrinogen conc. in the supernatant", "setting": "plasmatic fibrinogen; 1 part plasma and 1 part 4.4 mM vancomycin in PBS", "result": 0.32, "unit": "g/L"}, {"measurement": "increase of turbidity of citrated plasma", "setting": "plasmatic fibrinogen; 25 μl 0-50 mM vancomycin, 25 μl P-Pool, 1 min RT", "result": "up to 20 fold"}, {"measurement": "vancomycin found in pooled serum", "setting": "plasmatic fibrinogen; [1]", "result": 2.1, "unit": "mM"}, {"measurement": "vancomycin found in supernatant of pooled plasma", "setting": "plasmatic fibrinogen; [1]", "result": 0.17, "unit": "mM"}, {"measurement": "vancomycin attached to 5 μM precipitating fibrinogen", "setting": "plasmatic fibrinogen; of 2.2 mM vancomycin in the reaction mixture", "result": 80, "unit": "µM"}, {"measurement": "vancomycin molecules/fibrinogen molecule", "setting": "plasmatic fibrinogen; washed precipitate", "result": 16}]}
